Experimental data from US6706740B2, “Fungicidal heterocyclic aromatic amides and their compositions, methods of use and preparation” (Dow AgroSciences LLC, priority 1999, dated 2004).
Like-named read-outs stand apart in the source and are kept apart here.

Columns and labels:
[1] = tested on: Stagonospora nodorum (Leptosphaeria nodorum—LEPTNO); test: In vitro fungal growth inhibition, Stagonospora nodorum (LEPTNO); format: cell-based; conditions: Leptosphaeria, read-out: LEPTNO in vitro Growth Inhibition
[2] = tested on: Phytophthora infestans (PHYTIN); test: microbe, parasite or virus in culture; format: cell-based; conditions: Phytophthora infestans, read-out: PHYTIN in vitro Growth Inhibition
[3] = tested on: Rhizoctonia solani (RHIZSO); test: microbe, parasite or virus in culture; format: cell-based; conditions: Rhizoctonia solani, read-out: RHIZSO in vitro Growth Inhibition
Ustilago maydis (USTIMA) = test: microbe, parasite or virus in culture; format: cell-based; conditions: Mycosarcoma maydis, read-out: USTIMA in vitro Growth Inhibition
[4] = tested on: Leptosphaeria nodorum—LEPTNO; test: Glume Blotch of Wheat, in vivo whole plant, 24 Hour Protectant; conditions: control of fungal infection vs untreated plants; for pest or weed control at 100 ppm: Leptosphaeria, read-out: LEPTNO in vivo 1 Day Protectant
Erysiphe graminis—ERYSGT = test: Powdery Mildew of Wheat, in vivo whole plant, 24 Hour Protectant; conditions: Erysiphe, control of fungal infection vs untreated plants, read-out: ERYSGT in vivo 1 Day Protectant
[5] = tested on: Puccinia recondita—PUCCRT; test: Brown Rust of Wheat, in vivo whole plant, 24 Hour Protectant; conditions: control of fungal infection vs untreated plants; for pest or weed control at 100 ppm: Puccinia, read-out: PUCCRT in vivo 1 Day Protectant
[6] = tested on: Phytophthora infestans—PHYTIN; test: whole plant or invertebrate; format: in vivo; conditions: Phytophthora, in Solanum lycopersicum, 24 h, read-out: PHYTIN in vivo 1 Day Protectant
[7] = tested on: Magnaporthe grisea (Pyricularia oryzae—PYRIOR); test: microbe, parasite or virus in culture; format: cell-based; conditions: Pyricularia oryzae, read-out: PYRIOR in vitro Growth Inhibition
Septoria tritici—SEPTTR = test: Leaf Blotch of Wheat, in vivo whole plant, 24 Hour Protectant; conditions: control of fungal infection vs untreated plants; for pest or weed control at 100 ppm: Zymoseptoria tritici, 24 h, read-out: SEPTTR in vivo 1 Day Protectant
[8] = tested on: Mycosphaerella graminicola (Septoria tritici—SEPTTR); test: In vitro fungal growth inhibition, Mycosphaerella graminicola (SEPTTR); format: cell-based; conditions: Zymoseptoria tritici, read-out: SEPTTR in vitro Growth Inhibition
[9] = 100 ppm spray, wheat, 24 hour protectant
[10] = 100 ppm spray, 24 hour protectant, wheat
[11] = wheat plants sprayed at 100 ppm, inoculated after 24 hours

| Compound | inhibition at 25 ppm ([1]; 25 ppm in growth medium) [%] | inhibition at 25 ppm [2] [%] | inhibition at 25 ppm [3] [%] | inhibition at 25 ppm (Ustilago maydis (USTIMA)) [%] | pest or weed control at 100 ppm [4, 9] [%] | pest or weed control at 100 ppm (Erysiphe graminis—ERYSGT; [9]) [%] | pest or weed control at 100 ppm [5, 9] [%] | pest or weed control at 100 ppm [6] [%] | inhibition at 25 ppm [7] [%] | pest or weed control at 100 ppm (Septoria tritici—SEPTTR; [9]) [%] | inhibition at 25 ppm ([8]; 25 ppm in growth medium) [%] | pest or weed control at 100 ppm [4, 10] [%] | pest or weed control at 100 ppm (Erysiphe graminis—ERYSGT; [10]) [%] | pest or weed control at 100 ppm (Septoria tritici—SEPTTR; [10]) [%] | also measured |
| --- | --- | --- | --- | --- | --- | --- | --- | --- | --- | --- | --- | --- | --- | --- | --- |
| COc1cccc(Oc2ccc(NC(=O)c3nccc(OC)c3O)cc2)c1 [Compound 434] | > 80 | < 80 | < 80 | < 80 | 25 to 74 | 25 to 74 | < 25 | < 25 | < 80 | < 25 | > 80 |  |  |  |  |
| O=C(Nc1nccs1)c1ncccc1O [Compound 235] | > 80 | > 80 | > 80 | > 80 |  |  |  | < 25 | > 80 |  | > 80 | < 25 | < 25 | < 25 | pest or weed control at 100 ppm [5, 10]: < 25% |
| COc1ccnc(C(=O)N[C@@H](Cc2ccc(OCc3ccccc3)cc2)C(=O)OCc2ccccc2)c1O [Compound 339] | < 80 | < 80 | < 80 | < 80 |  | < 25 |  | < 25 | < 80 |  | < 80 |  |  |  | LEPTNO in vivo 1 Day Protectant [4, 9]: + +; PUCCRT in vivo 1 Day Protectant [5, 9]: + +; SEPTTR in vivo 1 Day Protectant (Septoria tritici—SEPTTR; [9]): + + |
| O=C(NCC1CCCCC1)c1ncccc1O [Compound 202] | < 80 | > 80 | < 80 | < 80 |  |  |  | < 25 | > 80 |  | < 80 | < 25 | < 25 | < 25 | pest or weed control at 100 ppm [5, 10]: < 25% |
| COc1ccnc(C(=O)N[C@H]2CO[C@@H](C(C)Cc3ccc(C(C)(C)C)cc3)OC2)c1O (stereo partly shown) [Compound 317] | < 80 | < 80 | < 80 | < 80 |  |  |  | 25 to 74 | < 80 |  | < 80 | < 25 | < 25 | < 25 | PUCCRT in vivo 1 Day Protectant [5, 10]: + + |
| COC(=O)C(COC(=O)CC(C)OC(=O)C(C)C)NC(=O)c1nccc(OC)c1OC(C)=O (stereo not shown) [Compound 586] |  | < 80 | < 80 | < 80 |  |  |  | < 25 | < 80 |  |  |  |  |  | inhibition at 25 ppm ([1]; 25 ppm in the growth medium): < 80%; pest or weed control at 100 ppm [4, 11]: 25 to 74%; pest or weed control at 100 ppm (Erysiphe graminis—ERYSGT; [11]): < 25%; pest or weed control at 100 ppm [5, 11]: 25 to 74%; pest or weed control at 100 ppm (Septoria tritici—SEPTTR; [11]): 25 to 74%; inhibition at 25 ppm ([8]; 25 ppm in the growth medium): < 80% |
| COc1ccnc(C(=O)Nc2ccccc2Oc2ccc(C#N)cc2)c1O [Compound 419] | < 80 | < 80 | < 80 | < 80 | < 25 | < 25 | < 25 | 25 to 74 | < 80 | < 25 | < 80 |  |  |  |  |
| COc1ccnc(C(=O)Nc2ccc(Oc3ccccc3Cl)cc2)c1O [Compound 441] | < 80 | < 80 | < 80 | < 80 | < 25 | < 25 | < 25 | < 25 | < 80 | < 25 | > 80 |  |  |  |  |
